Data from ChEMBL document CHEMBL1687772, “Lysyl-phosphatidylglycerol attenuates membrane perturbation rather than surface association of the cationic antimicrobial peptide 6W-RP-1 in a model membrane system: implications for daptomycin resistance” (Antimicrob Agents Chemother, 2010).
The source made the active and inactive calls. No cut-off for these calls is given here.

Key:
Lipid bilayer [1] = experiment: Binding affinity to POPG:POPC:lysyl-DOPG:7MC-POPE unilamellar lipid vesicle with <30 mol% of lysyl-DOPG at 0.5 uM by FRET assay
Lipid bilayer [2] = experiment: Binding affinity to POPG:POPC:lysyl-DOPG:7MC-POPE unilamellar lipid vesicle with >30 mol% of lysyl-DOPG at 0.5 uM by FRET assay

Activity (Lipid bilayer [1]): Active | Activity (Lipid bilayer [2]): inactive
Substance: H-ALYKKWKKKLLKSLKRLG-OH
